From article PMC4552634, “A New Set of Chemical Starting Points with Plasmodium falciparum Transmission-Blocking Potential for Antimalarial Drug Discovery” (PLoS ONE, 2015)

tested on: P. falciparum stage V gametocytes; experiment: microbe, parasite or virus in culture; parameters: BacTiter-Glo ATP luminescence viability of purified stage V gametocytes in 384-well plates, per cent inhibition versus DMSO; conditions: Plasmodium falciparum, 48 h, read-out: % Inhibition

Structure (SMILES)	inhibition at 5 µM [%]
COc1ccc2c(NN=Cc3ccccc3Cl)ccnc2c1 [TCMDC-142127]	-22.2
COc1cccc2c(NN=Cc3ccccc3Cl)cc(C)nc12 [TCMDC-142116]	23.3
CN=C(Nc1c(Cl)cccc1Cl)N(C)C [TCMDC-142121]	5.95
Cc1ccc2c(NN=Cc3ccc(Cl)cc3)cc(C)nc2c1 [TCMDC-142113]	40.7
Cc1cc(NN=Cc2ccccc2Cl)c2cccc(C)c2n1 [TCMDC-142114]	48.6
Cc1cc(NN=Cc2ccccc2F)c2cc(F)ccc2n1 [TCMDC-142171]	-53.4
CC(C)(C)NCC(O)COc1ccc(Cl)cc1C1=NNC(=O)CC1 (stereo not drawn) [TCMDC-142298]	8.53
Cc1ccccc1Nc1nc(NCc2ccccc2)nc2ccccc12 [TCMDC-142319]	98.9
COc1ccc(C=NNc2cc(C)nc3c(C)cccc23)c2ccccc12 [TCMDC-142216]	-26.1
COc1ccc2nccc(NN=Cc3cccc(F)c3)c2c1 [TCMDC-142131]	82.2
Cc1cc(NN=CC=Cc2ccccc2)c2ccc(F)cc2n1 [TCMDC-142176]	-23.9
O=C(NC1c2ccccc2Oc2ccccc21)c1ccccc1O [TCMDC-142251]	3.63
COc1ccc2nccc(NN=Cc3ccccc3)c2c1 [TCMDC-142110]	31.2
COc1ccc2c(NN=CC=Cc3ccccc3)ccnc2c1 [TCMDC-142144]	-5.92
CCCCN(CCCC)CCC(O)C(=Cc1ccc(Cl)cc1Cl)c1ccc(C(F)(F)F)cc1N (stereo not drawn) [TCMDC-142318]	-17.1
Cc1[nH]cnc1CSCCN/C(=N\C#N)NCCCCCCCCN/C(=N/C#N)NCCSCc1nc[nH]c1C [TCMDC-142302]	48.1
Cc1cc(N/N=C/c2ccccc2[N+](=O)[O-])c2cc(F)ccc2n1 [TCMDC-142167]	-36.5
CCCC(C(=O)OCCNC)(c1ccccc1)c1ccccc1 [TCMDC-142275]	48.4
Cc1cc(N/N=C/c2cccc([N+](=O)[O-])c2)c2cc(F)ccc2n1 [TCMDC-142166]	-21.6
C=CCN1Cc2c(O)cccc2C(c2ccc(O)c(O)c2)C1 (stereo not drawn) [TCMDC-142270]	-127
CCCCN(CCCC)CC(O)c1cc(-c2ccc(Cl)cc2)nc2c(Cl)cc(Cl)cc12 (stereo not drawn) [TCMDC-142268]	-20.8
Cc1cc(NN=Cc2ccc(F)cc2)c2cc(C(F)(F)F)ccc2n1 [TCMDC-142158]	-75.7

Structure (SMILES)	inhibition at 5 µM [%]
Cc1cc(NN=Cc2ccccc2Cl)c2ccc(F)cc2n1 [TCMDC-142162]	-52.4
Nc1c2c(nc3ccccc13)C(=Cc1ccc(O)cc1)CCC2 [TCMDC-142288]	-4.93
Cc1ccc2c(c1[N+](=O)[O-])N=NCC2Oc1ccccc1 (stereo not drawn) [TCMDC-142213]	38.1
COc1ccc(C=NNc2cc(C)nc3ccccc23)cc1OC [TCMDC-142184]	-5.19
COc1ccc2c(NN=Cc3ccc(Cl)cc3)ccnc2c1 [TCMDC-142105]	-15.3
Cc1cc(NN=CC=Cc2ccccc2)c2cc(F)ccc2n1 [TCMDC-142177]	-42.3
CCCN(CCC)CCCOc1ccc(C(=O)c2c(-c3ccc(OCCCN(CCC)CCC)cc3)oc3ccc(Cl)cc23)cc1 [TCMDC-142256]	105
COc1ccc2nc(C)cc(NN=Cc3cc(OC)c(OC)cc3OC)c2c1 [TCMDC-142199]	-26
COc1ccc2c(NN=Cc3ccccc3F)cc(C)nc2c1 [TCMDC-142118]	-19.6
CCCNc1nc(Nc2ccccc2C)nc2ccccc12 [TCMDC-142326]	78.9
Cc1cc(NN=Cc2ccc(F)cc2)c2cc(F)ccc2n1 [TCMDC-142172]	-47.2
O=[N+]([O-])c1ccccc1C=NNc1c2c(nc3ccccc13)CCCC2 [TCMDC-142202]	-53.6
Cc1cc(NN=Cc2ccc(Cl)cc2)c2cc(F)ccc2n1 [TCMDC-142163]	56.5
c1cc(CN2CCCCC2)cc(OCCCNc2ccnc3ccccc23)c1 [TCMDC-142315]	42
Nc1c2c(nc3ccc(C(=O)Nc4ccc(Br)cc4)cc13)CCCC2 [TCMDC-142287]	62.2
Cc1cc(N/N=C/c2cccc([N+](=O)[O-])c2)c2ccc(F)cc2n1 [TCMDC-142169]	109
Oc1ccc(Br)cc1-c1nc2ccc(Cl)cc2nc1-c1cc(Br)ccc1O [TCMDC-142219]	82.4
COc1ccc2nccc(NN=Cc3cccc([N+](=O)[O-])c3)c2c1 [TCMDC-142137]	53.9
CC(C)NCc1cc(Nc2ccnc3cc(Cl)ccc23)ccc1O [TCMDC-142277]	-61.6
Cc1cc(NN=Cc2cccc(Cl)c2)c2cc(F)ccc2n1 [TCMDC-142164]	-59.6
COc1cc2c(cc1OC)C(c1ccc(Br)cc1)CN(C)CC2 (stereo not drawn) [TCMDC-142272]	20.3
CC(C)(C)c1cc(Cl)cc(C(=O)Nc2cc([N+](=O)[O-])ccc2Cl)c1O [TCMDC-142214]	36.2

Structure (SMILES)	inhibition at 5 µM [%]
Fc1cccc(C=NNc2ccnc3ccc(C(F)(F)F)cc23)c1 [TCMDC-142151]	-62.1
COc1ccc2nccc(NN=Cc3ccc([N+](=O)[O-])cc3)c2c1 [TCMDC-142139]	-3.02
CCOc1ccc2c(NN=Cc3ccc(OC)c(OC)c3)cc(C)nc2c1 [TCMDC-142206]	95.7
COc1cccc2c(N/N=C/c3ccc([N+](=O)[O-])cc3)ccnc12 [TCMDC-142109]	64
CCCCCCCCNCC(O)c1cc(-c2ccc(Cl)cc2)nc2cc(C)ccc12 (stereo not drawn) [TCMDC-142223]	-7.88
COc1ccc2nccc(NN=Cc3ccc(F)cc3)c2c1 [TCMDC-142132]	32.1
CCOc1ccc2c(NN=Cc3ccccn3)cc(C)nc2c1 [TCMDC-142187]	20.9
COc1cc(C=NNc2cc(C)nc3c(OC)cccc23)cc(OC)c1OC [TCMDC-142200]	84.3
N[C@@H](Cc1cc(I)c(Oc2ccc(O)c(C(=O)O)c2)c(I)c1)C(=O)O [TCMDC-142341]	5.53
CCCCc1ccc2[nH]cc(C(=O)OCC)c(=O)c2c1 [TCMDC-142243]	33.5
COc1ccc2c(NN=Cc3c(OC)ccc4ccccc34)cc(C)nc2c1 [TCMDC-142236]	103
COc1ccc2c(NN=Cc3ccccc3)ccnc2c1 [TCMDC-142111]	89.4
COc1ccc2c(NN=Cc3ccc(N(C)C)cc3)ccnc2c1 [TCMDC-142146]	97.5
Cc1ccc(C2(O)CC3CCC(C2)N3C)cc1 (stereo not drawn) [TCMDC-142260]	10.6
CCCCN(CCCC)Cc1cc(Nc2ccnc3cc(Cl)ccc23)ccc1O [TCMDC-142279]	-8.89
CN(C(=O)c1ccc(Br)cc1)c1ccccc1[N+](=O)[O-] [TCMDC-142245]	-8
COc1ccc(C=NNc2ccnc3cc(F)c(C)cc23)c2ccccc12 [TCMDC-142235]	-8.9
COc1ccc2c(N/N=C/c3cccc([N+](=O)[O-])c3)ccnc2c1 [TCMDC-142138]	79.5
CCCCCCc1cc(Oc2c(I)cc(C[C@H](N)C(=O)O)cc2I)ccc1O [TCMDC-142342]	5.11
Cc1cc(NN=Cc2ccc(Cl)cc2)c2cccc(C)c2n1 [TCMDC-142115]	-40.8
CN=C(NO)NCCN(C)C [TCMDC-142305]	-1.82
Nc1c2c(nc3ccc(NC(=O)c4ccc([N+](=O)[O-])cc4)cc13)CCCC2 [TCMDC-142291]	60.6

Structure (SMILES)	inhibition at 5 µM [%]
Nc1c2c(nc3ccc(C(=O)Nc4ccccc4)cc13)CCCC2 [TCMDC-142284]	39.7
COc1cccc2c(NN=Cc3cccc(F)c3)ccnc12 [TCMDC-142107]	74.3
CC(C)c1cc(Oc2c(I)cc(CCCc3ncc[nH]3)cc2I)ccc1O [TCMDC-142307]	-127
Cc1cc(F)ccc1Nc1nc(N(C)c2ccccc2)c2cc(OCCN(C)C)ccc2n1 [TCMDC-142333]	31.3
CCOc1ccc2c(NN=Cc3cccc(OC)c3)cc(C)nc2c1 [TCMDC-142204]	80.8
CCOc1ccc2c(NN=Cc3cccc(Cl)c3)cc(C)nc2c1 [TCMDC-142192]	-2.16
FC(F)(F)c1ccc2nccc(NN=Cc3ccc(Cl)cc3)c2c1 [TCMDC-142103]	1.69
COc1ccc2nccc(NN=Cc3ccccc3Cl)c2c1 [TCMDC-142126]	20.5
COc1ccc(OC)c2c1CC1NCC2c2c(OC)ccc(OC)c21 (stereo not drawn) [TCMDC-142224]	2.64
Fc1ccc(C=NNc2ccnc3ccc(C(F)(F)F)cc23)cc1 [TCMDC-142152]	-15.6
COc1ccc2c(NN=Cc3ccccc3F)ccnc2c1 [TCMDC-142133]	84.6
COc1ccc2nccc(NN=Cc3ccccc3[N+](=O)[O-])c2c1 [TCMDC-142136]	27.9
O=c1c(NCCCN(Cc2ccc(F)cc2)c2ccccn2)c(NCc2ccncc2)c1=O [TCMDC-142310]	91.6
CCCCCCCCNCC(O)c1ccc(Cl)c(Cl)c1 (stereo not drawn) [TCMDC-142225]	17.7
CCCCCCN(CCCCCC)CC(O)c1c(OC)ccc2ccccc12 (stereo not drawn) [TCMDC-142248]	-34.9
COc1ccc(C2CNCc3c2cc(OC)c(OC)c3Cl)cc1 (stereo not drawn) [TCMDC-142271]	22.9
COc1cccc2c(NN=Cc3ccc(Cl)cc3)ccnc12 [TCMDC-142106]	-26.4
Cc1cc(NN=Cc2ccc(Cl)cc2)c2cc(C(F)(F)F)ccc2n1 [TCMDC-142155]	-3.11
Cc1cc(NN=Cc2ccccc2Cl)c2cc(F)ccc2n1 [TCMDC-142165]	-39.2
COc1ccc2c(NN=C(C)c3ccccn3)cc(C)nc2c1 [TCMDC-142239]	103

same assay, conditions: Plasmodium falciparum, 48 h; read-out: % Inhibition

Structure (SMILES)	inhibition at 5 µM [%]
CCCCCCC(C)(C)c1cc(O)c2c3c(c(=O)oc2c1)CCN(Cc1ccccc1)C3 [TCMDC-142252]	-7.75
CCCCCCC(C)(C)c1cc(O)c2c(c1)OC(C)(C)c1ccncc1-2 [TCMDC-142253]	30.7
CCCCCCC(C)c1cc(O)c2c(c1)OC(C)(C)c1ccncc1-2 (stereo not drawn) [TCMDC-142254]	56.1
CCCCCC(C)C(C)c1cc(O)c2c(c1)OC1(C(C)C)CC(O)C(C)C2C1 (stereo not drawn) [TCMDC-142232]	44.6
